From patent US12540150B1, “Fluorogenic probe using a Mislow-Evans rearrangement for real-time imaging of hydrogen peroxide” (University of Pittsburgh—Of the Commonwealth System of …, priority 2020, dated 2026)
Several values for one entry are separate records, joined by “and”; a condition that tells them apart may be missing. Equal values may be shown once.

Experiments:
[1] = Selectivity of 1: reaction with ClO^−; settings: for Fluorescence Intensity: pH 7, 25° C., 15 min
Method: Next, it was tested whether OCl^− and ONOO^− (peroxynitrite), would react with 1. A solution of 0, 1, 10, or 22 μM ONOO— in 0.3 M NaOH (20 μL) or 1, 10, 100, or 1000 μM NaOCl in water (20 μL) was added to the wells of a black 96-well plate. A solution of 10 μM 1 in DMSO (560 μL) and 5:95 MeCN/1.2 M phosphate pH 7 buffer (4.48 mL) was made; this solution (180 μL) was transferred to each of the wells. The samples were allowed to incubate at 25° C. for 15 min before the fluorescence was measured. […] This may be attributed to trace amounts of H2O2 in the ONOO^− solution.

[2] = Response of probe 1 to H2O2 at various pHs; settings: for Fluorescence: 23° C., 20 min
Method: The probe's response to H2O2 in the pH 4-7.3 range was studied to determine whether this technology would work in acidic and neutral intracellular environments, such as lysosomes (pH 5), Golgi apparatus (pH 6.4-6.8), mitochondria (pH 6.9-8.0), and cytoplasm (pH 7.1-7.6). A solution of 50 mM phosphate pH 7.3 buffer was treated with 1.0 N HCl to adjust the pH to 7.0, 6.5, 5.9, 5.4, 4.5, or 4.1. The concentration of the resulting buffers was adjusted with water to 25 mM phosphate buffer. Solutions of 25 mM phosphate pH 7.3, 7.0, 6.5, 5.9, 5.4, 4.5, or 4.1 buffer ([…]) and 100 μM probe 1 in MeOH were treated with 100 μM, 10 μM or 0 μM H2O2 in water. The solutions were allowed to incubate at 23° C. for 20 min prior to measuring the fluorescence.

endothelial cells = assay: Localization of 1 in endothelial cells with MitoTracker Red, ionomycin stimulation; type: cell-based; settings: ionomycin 10 μM
Method: To study the localization of 1, endothelial cells were simultaneously incubated with 1 μM MitoTracker® Red FM (ThermoFisher Scientific) for 20 min at 37° C. (FIG. 24D). The dish was inserted in a closed, thermo-controlled (37° C.) stage top incubator (Tokai Hit Co., Shizuoka-ken, Ja-pan) atop the motorized stage of an inverted Nikon TiE fluorescent microscope (Nikon Inc., Melville, NY) equipped with a 60× oil immersion optic (Nikon, CFI PlanFluor, NA 1.49) and NIS Elements Software. The sample was excited using the 555 nm line and detected using a TRITC filter set.

Structure (SMILES): Oc1ccc2c(c1)Oc1cc(O/C=C/C[Se]c3ccccc3)ccc1[C@@]21OCc2ccccc21 [Compound 1, (S,E)-6′-((3-(Phenylselanyl)prop-1-en-1-yl)oxy)-3H-spiro[isobenzofuran-1,9′-xanthen]-3′-ol]
- fluorescence change with increasing concentrations of OCl^− [1]: No statistically significant increase in fluorescence intensity
- Fluorescence Intensity ([1]; 100 nM NaOCl): 33,503 and 25,413 and 28,088
- Fluorescence Intensity ([1]; 1.0 μM NaOCl): 28,551 and 25,590 and 33,211
- Fluorescence Intensity ([1]; 10 μM NaOCl): 41,611 and 35,271 and 35,308
- Fluorescence Intensity ([1]; 100 μM NaOCl): 46,362 and 40,070 and 41,695
- Fluorescence Intensity ([1]; no ROS): 30,591 and 24,478 and 26,025
- pH dependence of fluorescence signals with H2O2 ([2]; pH 4-7.3 range): higher when the pH was above 5.4
- Fluorescence ([2]; pH 4.10, 0 μM H2O2): 28,470 and 25,037 and 28,661
- Fluorescence ([2]; pH 4.10, 1 μM H2O2): 35,884 and 30,492 and 30,471
- Fluorescence ([2]; pH 4.10, 10 μM H2O2): 51,632 and 54,097 and 52,472
- Fluorescence ([2]; pH 4.50, 0 μM H2O2): 29,770 and 29,064 and 29,069
- Fluorescence ([2]; pH 4.50, 1 μM H2O2): 40,599 and 31,790 and 33,283
- Fluorescence ([2]; pH 4.50, 10 μM H2O2): 55,577 and 54,961 and 56,315
- Fluorescence ([2]; pH 5.40, 0 μM H2O2): 56,192 and 56,334 and 52,671
- Fluorescence ([2]; pH 5.40, 1 μM H2O2): 61,365 and 63,294 and 60,943
- Fluorescence ([2]; pH 5.40, 10 μM H2O2): 106,516 and 107,311 and 103,354
- Fluorescence ([2]; pH 5.90, 0 μM H2O2): 87,499 and 89,708 and 90,424
- Fluorescence ([2]; pH 5.90, 1 μM H2O2): 113,703 and 111,368 and 107,545
- Fluorescence ([2]; pH 5.90, 10 μM H2O2): 167,836 and 187,633 and 154,515
- Fluorescence ([2]; pH 6.50, 0 μM H2O2): 155,151 and 183,747 and 149,421
- Fluorescence ([2]; pH 6.50, 1 μM H2O2): 203,661 and 188,050 and 184,986
- Fluorescence ([2]; pH 6.50, 10 μM H2O2): 332,896 and 341,948 and 335,544
- Fluorescence ([2]; pH 7.00, 0 μM H2O2): 199,101 and 207,136 and 187,676
- Fluorescence ([2]; pH 7.00, 1 μM H2O2): 247,464 and 221,499 and 229,530
- Fluorescence ([2]; pH 7.00, 10 μM H2O2): 389,464 and 369,467 and 390,006
- Fluorescence ([2]; pH 7.30, 0 μM H2O2): 189,898 and 183,424 and 169,054
- Fluorescence ([2]; pH 7.30, 1 μM H2O2): 228,368 and 208,913 and 186,665
- Fluorescence ([2]; pH 7.30, 10 μM H2O2): 373,555 and 388,584 and 401,912
- time after the addition of ionomycin of first image showing increased fluorescence (endothelial cells): ≤ 8 s
